Reference: BindingDB's records for patent US20240317732 (Department of Health And Human Service, 2024)

target: Proteasomal ubiquitin receptor ADRM1 (Homo sapiens, UniProt Q16186); test: Isothermal Titration Calorimetry Experiments
Description: ITC experiments were performed at 25° C. on a MicroCal iTC200 system (Malvern, PA, USA). hRpn13 Pru, XL5, XL5 derivative, or RA190 were prepared in buffer C. One aliquot of 0.5 μL followed by 17 or 18 aliquots of 2.1 μL of 200 μM hRpn13 Pru was injected at 750 r.p.m. into a calorimeter cell (volume […]) that contained 20 μM XL5, XL5 derivative, or RA190. Blank experiments were performed by replacing XL5, XL5 derivative, or RA190 with buffer in the cell and the resulting data subtracted from the experimental data during analyses. The integrated interaction heat values were normalized as a function of protein concentration and the data were fit with MicroCal Origin 7.0-based software implementing the One Set of Sites model to yield binding affinity Ka (1/Kd), stoichiometry, and other thermodynamic parameters.

Proteasomal ubiquitin receptor ADRM1, sequence (Q16186 whole entry): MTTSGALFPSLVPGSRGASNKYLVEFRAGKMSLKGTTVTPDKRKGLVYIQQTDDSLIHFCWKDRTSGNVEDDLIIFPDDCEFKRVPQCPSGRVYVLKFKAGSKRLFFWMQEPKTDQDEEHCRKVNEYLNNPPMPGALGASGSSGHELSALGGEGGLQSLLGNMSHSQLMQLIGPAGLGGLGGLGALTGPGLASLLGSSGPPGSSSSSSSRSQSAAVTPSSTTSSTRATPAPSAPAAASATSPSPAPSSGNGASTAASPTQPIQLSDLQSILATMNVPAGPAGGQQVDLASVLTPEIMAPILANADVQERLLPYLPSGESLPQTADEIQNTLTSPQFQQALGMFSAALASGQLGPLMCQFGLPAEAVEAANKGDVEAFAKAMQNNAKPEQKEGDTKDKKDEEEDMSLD

`Cc1ccc(C(=O)Nc2cccc(C=C(C#N)C(=O)Nc3ccccc3C(=O)O)c2)nc1O` [US20240317732, Compound XL27] and `N#C/C(=C\c1cccc(NC(=O)c2ccccc2Cl)c1)C(=O)Nc1ccccc1C(=O)O` [US20240317732, Compound XL23] are within 1.5-fold of each other in Kd: 3.94 µM for the first, 3.88 µM for the second.

Compared with `CNc1ccc(NC(=O)/C(C#N)=C/c2cccc(NC(=O)c3ccc(C)cc3)c2)c(C(=O)O)c1` [US20240317732, Compound XL29], `COc1ccc(NC(=O)/C(C#N)=C/c2cccc(NC(=O)c3ccc(C)cc3)c2)c(C(=O)O)c1` [US20240317732, Compound XL28] is 2-fold lower in Kd: 7.81 µM for the first, 3.82 µM for the second. The second binds more tightly here.

Compared with `Cc1ccc(C(=O)Nc2cccc(C=C(C#N)C(=O)Nc3cccc(C(F)(F)F)c3C(=O)O)c2)cc1` [US20240317732, Compound XL30], `N#CC(=Cc1cccc(NC(=O)c2ccc(NCC(=O)O)cc2)c1)C(=O)Nc1ccccc1C(=O)O` [US20240317732, Compound XL25] is 3-fold lower in Kd: 12.4 µM for the first, 4.12 µM for the second. The second binds more tightly here.
